Reference: a melting point compilation (Tetko et al.; mined from patent text by program, amines drawn as free bases though some values may be those of a salt)

melting point [°C] | Compound
127 to 129 | CCC(C)(O)c1cc(NC(=O)N2CCN(c3cc(OC)cc(OC)c3)CC2)c(OC)nc1C (stereo not given)
107 to 108 | CC(=O)C1CCC2C3CCC4CC(OC(=O)C(F)(F)F)CCC4(C)C3C(=O)CC12C (stereo not given)
> 310 | COC(=O)C1CCN(c2ccc3nc4[nH]c(=O)[nH]c4cc3c2)CC1
144 | CC(C)(C)OC(=O)C1C(C#CC(=O)O)C1(C)C (stereo not given)
128 to 131 | C=CCc1c(Cl)cc2c(c1O)OC(COS(=O)(=O)c1ccc(C)cc1)C2 (stereo not given)
172 to 174 | COc1cccc2c(CCNC3COc4c(F)ccc(C(N)=O)c4C3)coc12 (stereo not given)
117 to 119 | O=C(CBr)c1ccc(O)c(CO)c1
123 to 125 | CC1(C)OC(=O)Nc2cc(-c3cccc(Cl)c3)sc21
> 260 | CC1(c2ccccc2)C2=C(COC2=O)Nc2cc3c(cc21)OCO3 (stereo not given)
137 to 138 | CCC(C(=O)C(C)C(O)C(C)CCC1=C(C(=O)O)C(O)=C(C)CC1=[N+]=[N-])C1OC(CC)(C2CCC(O)(CC)C(C)O2)CC1C (stereo not given)
159 to 161 | COc1cccc(Sc2ccnc(Nc3ccc(N4CCOCC4)cc3)n2)c1
216 to 218 | Cc1ccc2c(c1)CN(C(=O)NCCc1ccc(S(=O)(=O)NC(=O)NC3CCCCC3)cc1)C2=O
55 to 57 | CC(C)c1ccc(C(=O)C2CCNCC2)cc1
175 to 177 | COc1cc2c(cc1OC)C(=O)C(CN1CCC(O)(c3ccccc3)CC1)CC2 (stereo not given)
199 to 201 | CC(=O)Oc1ccc2c(c1)CCC1C3CCC(=O)C3(C)CC(O)C21O (stereo not given)
66 to 68.5 | NCCCc1ccc2c(n1)NCCC2
83 | COc1cccc(OC(=O)/C=C/c2ccc(C(C)(C)C)cc2)c1
134 to 135 | CCCCc1nn(C(F)(F)F)c(C(=O)O)c1Cc1ccc(C2(C(=O)O)CC=CC2)s1
111 | CC(=O)[C@H]1[C@H](C(=O)O)C1(C)C (relative stereo)
209 to 211 | O=S1CCN(c2nc(N3CCNCC3)cc3ccc(Cl)cc23)CC1
250 to 255 | CC1Sc2c(C(=O)O)c(=O)c3cc(Cl)c(N4CCN(C)CC4)cc3n21 (stereo not given)
265 | O=C1NCc2cc(C(=O)c3ccccc3)ccc2N1

melting point [°C] | Compound
120 to 124 | O=C1N(c2ccc(Cl)cc2)C(Cl)(Cl)C2CCCCC12Cl (stereo not given)
142 | CC(C)(C)C(=O)Oc1cc2c(c3ccccc13)Nc1ccccc1S2
288 | Cc1nc2c(O)cccn2c(=O)c1CCN1CCC(c2noc3cc(F)ccc23)CC1
< 20 | CCOC(=O)C(C)(C)OC1(CCCNC(=O)c2cc(Cl)ccc2OC)C=CC(c2ccccc2)=CC1 (stereo not given)
288 to 290 | Nc1cc(Oc2ccc3c(C(=O)O)cccc3c2)ncn1
166 to 167 | Cc1nc2cccc3n(CCCCNS(C)(=O)=O)c(=O)c1n23
127 to 128 | Cc1cc(OCc2ccccc2)cc(OCC2CCCCC2)c1C(=O)O
145 | CCCCOc1ccc(C(=O)Nc2ccc3cc(CN4CCN(C)CC4)cnc3c2C)cc1
200 to 202 | CC(CCCc1ccccc1)c1cc2oc(=O)c3c(c2cc1O)C(=O)CCC3 (stereo not given)
160 | CC(C)(Oc1ccc(CC(=O)Nc2cc(Cl)c(Cl)c(Cl)c2)cc1)C(=O)O
94 to 96 | O=C1C(=Cc2ccsc2)CCc2cc(OCCc3c[nH]cn3)ccc21
171 to 172 | OCc1ccc2cc(CO)ccc2c1
206 to 207 | CC(=O)Oc1cc(C)c(C)cc1C1(OC(C)=O)C(=O)c2ccccc2C1=O
85.5 to 86.5 | CCOC(=O)c1c(-c2ccc(F)cc2)c2n(c1C(C)C)CCCC2
170 to 172 | COc1ccc(C2CC(n3cncn3)c3ccccc3N2)cc1 (stereo not given)
218 to 219 | COc1ccc(-c2c(Cl)c(CN3C(=O)COC3=O)nc3sc4c(c23)CCC(C(=O)O)C4)cc1 (stereo not given)
88 to 90 | COC(=O)c1cc(C2(c3ccc(F)c(-c4cncnc4)c3)N=C(N)N(C)C2=O)cn1CCF (stereo not given)
263 to 264 | CS(=O)(=O)c1ccc(-n2cc(CC(=O)O)nc2-c2ccc(Cl)cc2)cc1
138 to 143 | Cc1cc2c(=O)n(CCN(Cc3ccc4c(c3)NC(=O)C(C)(C)C(=O)N4CC3CC3)Cc3cccnc3C)ccc2o1
243 | O=C(CN1CCCCC1)Nc1ccc2c(c1)C(=O)c1cc(NC(=O)CN3CCCCC3)ccc1C2=O
180 to 183 | CCOC(=O)C1=C(C)NC(c2cscn2)=NC1c1cccc(O)c1 (stereo not given)

Continued, compound first:

Compound | melting point [°C]
Cc1ccccc1OCCCc1oc(-n2ccnc2)nc1-c1ccc(Cl)cc1 | 113 to 114
COc1ccc(CCN)cc1S(N)(=O)=O | 164 to 167
CC(=O)CCCSc1cc(C(C)(C)C)c(O)c(C(C)(C)C)c1 | 65 to 67
C1=C(c2c[nH]c3ccccc23)CCN(CCc2csc3ccccc23)C1 | 195 to 198
CCCCCCCCCCCCc1c[nH]c2cc(C(=O)O)ccc12 | 181 to 184
C=CCCc1ccc(C=NN=Cc2ccc(C)cc2)cc1 | 82
Cc1cc(-n2cncn2)ncc1[N+](=O)[O-] | 198 to 200
COCCCNC(=O)OCCCc1ccc(OCCOC)cc1Oc1ncc(C(F)(F)F)cc1Cl | 83.5 to 85
CCc1cc(Cc2cc(C)c(N)c(CC)c2)cc(C)c1N | 85 to 86
COCCOc1cc(C(F)(F)F)cnc1-c1nc(C)c(-c2ccnc(Nc3ccc(N4CCOCC4)cc3)n2)s1 | 175 to 178
CS(=O)(=O)N1CCN(c2cc(Cl)ncn2)CC1 | 200 to 202
CC(C)c1c(S(=O)(=O)c2ccc(O)cc2)c2ccccn2c1C#N | 232
CC(=O)N1CCN(CCn2c3ccccc3c(=NN=C3NCCS3)c3ccccc32)CC1 | 256
CNc1cc(Cl)c(C=O)c(Cl)c1 | 172 to 174
COCOc1ccc(OC)c(-c2ccc(C[C@H](NC(=O)c3c(Cl)cccc3Cl)C(=O)O)cc2)c1OC | 156 to 157
C#CCOc1c(OC)cc(/C=C/C(=O)/C=C/c2cc(OC)c(OC)c(OC)c2)cc1OC | 118 to 120
N#Cc1c(Nc2cccnc2)nn(Cc2ccccc2)c1N | 191 to 192
CC(c1cc(Cl)ccc1O)c1cc(Br)ccc1O (stereo not given) | 167
O=C1c2ccc(S(=O)(=O)c3ccccc3)cc2C(=O)c2cc3ccccc3cc21 | > 260

Compound | melting point [°C]
COC(=N)c1sc2ccccc2c1O | 201
CCCCn1c(=O)c2c(ncn2S(=O)(=O)c2cccs2)n(CCCC)c1=O | 145 to 146
CC(C)=CCC/C(C)=C/CC/C(C)=C/C(N)=O | 53 to 53.5
CNC(=O)Oc1ccc(SC)c2c1CCCC2 | 146 to 147
COc1nc(N2CCCCC2)nc(OC)c1O | 109
COCC1OC(=Nc2nccs2)c2c1nc1cc(Cl)ccc1c2O (stereo not given) | > 270
CC1Cc2ccc(Cl)cc2C(c2ccc([N+](=O)[O-])cc2)=NN1 (stereo not given) | 132 to 135
O=c1ccc(C(F)(F)F)cn1-c1ccc(NCCCl)cc1Cl | 160 to 162
Nc1nccnc1-c1cc(Cl)cc(Cl)c1Cl | 142 to 143
CN1CC2CC(=O)NC3C=CC=C4Cc5ccccc5C(C1)C2N43 (stereo not given) | 165 to 168
COc1cc2[nH]c(C)c(CCN3CCN(NC(=O)c4ccccc4)CC3)c2cc1OC | 128 to 131
CCCCCc1c(-c2ccc3c(Br)c(OCC(=O)O)ccc3c2)oc2ccccc12 | 159 to 161
N#Cc1cc(C=C2SC(=S)NC2=O)cc(O)c1O | > 350
Cc1cncc(CNC(=O)c2sc(N3CCN(CCCC(F)(F)F)C3=O)nc2C)n1 | 123
Cc1ccc(COC2C(Sc3ccccc3)OC(C)C(OC(=O)c3ccccc3)C2OC(=O)c2ccccc2)cc1 (stereo not given) | 81 to 83
O=C(N(c1ccccc1)c1nc(C(Cl)(Cl)Cl)ns1)C(Cl)(Cl)Cl | 158
CCOCc1nc2c(N)nc(C)c(C)c2n1NCCCNC(=O)NC(C)C | 203 to 205
CCCCCCCCN(CCCCCCCC)C(=O)CS(=O)(=O)Nc1c(C(C)C)cccc1C(C)C | 107 to 109
COc1cccc(C=NNC(=O)OC(C)(C)C)c1 | 136 to 137

Compound | melting point [°C]
COc1ccc(-c2nc(CCl)nc3cc(OC)c(OC)cc23)cc1OC | 183 to 184
COc1cc(C(C)C)c2c(c1)S(=O)(=O)N(COc1cc(C#N)nn1-c1ccccc1)C2=O | 114 to 116
O=C(NCCCCSc1ccncc1)c1ccccc1 | 75 to 77
Cc1[nH]n(C)c2nc(-c3ccncc3)nc(=O)c1-2 | > 301
O=C(O)c1cccnc1C(=O)c1cccc(C(F)(F)F)c1 | 147 to 150
O=C(CCl)Nc1ccc2[nH]c(=O)c3ccccc3c2c1 | 300 to 303
CN(C)CCN(C)C(=O)c1ccc2cc(-c3csc(N(C)S(=O)(=O)c4ccccc4)n3)c(=O)[nH]c2c1 | 144 to 148
COCCCn1nnnc1-c1cc(-c2cccc(C)c2)c(O)cc1O | 137 to 140
CCc1nc2c(cnn2CC)c(NC2CCOCC2)c1CNC(=O)c1cccc(C(=O)NCc2ccc(OC)c(-c3cccc(CN4CC5CC4CN5)c3)c2)c1 (stereo not given) | 129 to 131
COc1ccc(C(C(c2ccccc2)c2ccc(F)cc2)C(F)(F)F)cc1 (stereo not given) | 113 to 120
N#Cc1cnc2c(sc3c([N+](=O)[O-])cccc32)c1Nc1cccc(Br)c1 | 288 to 290
CN(C)c1ccccc1SCc1noc(CSc2ccc(Br)cc2)n1 | 78
CCOC(=O)c1nc(NC)sc1-c1nc2ccccn2c1C | 183 to 185
O=C(O)COc1ccc2c(-c3ccc(Cl)cc3)noc2c1Cl | 254 to 257
COC(=O)c1cc(N)c(Cl)c(S(=O)(=O)n2cccc2)c1 | 178 to 181
O=C1COc2cc(F)c([N+](=O)[O-])cc2N1 | 200 to 202
COc1ccc(C(O)Cc2c(Cl)cncc2Cl)c2c1OC(C)(C)C2 (stereo not given) | 100 to 104
Cc1ccccc1Nc1nc(N(C)c2ccccc2)c2sccc2n1 | 198 to 200
COc1ncccc1Nc1c(NC(NC(=O)c2cccc(C)c2)C(C)(C)C)c(=O)c1=O (stereo not given) | 224 to 226
